What was measured:
Assay in all cases: SelectScreen, TR FRET
NEK6 (human) = NEK6 (human) (UniProt Q9HC98)
MST4 (human) = MST4 (human) (UniProt Q9P289)
RPS6KB1 (human) = RPS6KB1 (human) (UniProt P23443)
CDK2 CCNA2 (human) = CDK2 CCNA2 (human) (UniProt P24941+P20248)
EGFR (human) = EGFR (human) (UniProt P00533)
MAP3K8 (human) = MAP3K8 (human) (UniProt P41279)
ROCK2 (human) = ROCK2 (human) (UniProt O75116)
PDPK1 (human) = PDPK1 (human) (UniProt O15530)
JAK3 JH1 JH2 (human) = JAK3 JH1 JH2 (human) (UniProt P52333)
NEK2 (human) = NEK2 (human) (UniProt P51955)
ZAP70 (human) = ZAP70 (human) (UniProt P43403)
PKN1 (human) = PKN1 (human) (UniProt Q16512)
DAPK1 (human) = DAPK1 (human) (UniProt P53355)
CDK5 CDK5R1 p25 (human) = CDK5 CDK5R1 p25 (human) (UniProt Q15078+Q00535)
FLT3 (human) = FLT3 (human) (UniProt P36888)
EPHB2 (human) = EPHB2 (human) (UniProt P29323)
ADRBK1 (human) = ADRBK1 (human) (UniProt P25098)
Chain of ADRBK1 (human) (P25098 whole entry, looked up): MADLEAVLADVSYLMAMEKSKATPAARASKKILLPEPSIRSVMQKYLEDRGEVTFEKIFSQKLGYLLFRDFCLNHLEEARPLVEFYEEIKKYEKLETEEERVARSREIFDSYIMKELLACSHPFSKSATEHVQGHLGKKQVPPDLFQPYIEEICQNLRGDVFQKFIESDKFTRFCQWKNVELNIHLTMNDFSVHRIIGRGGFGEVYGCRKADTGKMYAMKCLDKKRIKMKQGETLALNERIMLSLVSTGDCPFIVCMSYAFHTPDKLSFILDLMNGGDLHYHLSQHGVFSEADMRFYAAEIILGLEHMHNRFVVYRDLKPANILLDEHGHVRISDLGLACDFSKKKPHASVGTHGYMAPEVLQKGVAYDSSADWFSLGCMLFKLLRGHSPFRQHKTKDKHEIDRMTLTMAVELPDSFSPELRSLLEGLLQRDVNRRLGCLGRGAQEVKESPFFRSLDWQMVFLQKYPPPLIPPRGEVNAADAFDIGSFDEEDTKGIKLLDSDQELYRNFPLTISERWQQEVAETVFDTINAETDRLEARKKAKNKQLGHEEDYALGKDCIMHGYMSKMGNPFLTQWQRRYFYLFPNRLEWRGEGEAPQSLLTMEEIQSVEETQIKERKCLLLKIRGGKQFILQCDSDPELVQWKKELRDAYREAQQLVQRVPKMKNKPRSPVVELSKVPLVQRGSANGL

LCK (human) = LCK (human) (UniProt P06239)
Chain of LCK (human) (P06239 whole entry, looked up): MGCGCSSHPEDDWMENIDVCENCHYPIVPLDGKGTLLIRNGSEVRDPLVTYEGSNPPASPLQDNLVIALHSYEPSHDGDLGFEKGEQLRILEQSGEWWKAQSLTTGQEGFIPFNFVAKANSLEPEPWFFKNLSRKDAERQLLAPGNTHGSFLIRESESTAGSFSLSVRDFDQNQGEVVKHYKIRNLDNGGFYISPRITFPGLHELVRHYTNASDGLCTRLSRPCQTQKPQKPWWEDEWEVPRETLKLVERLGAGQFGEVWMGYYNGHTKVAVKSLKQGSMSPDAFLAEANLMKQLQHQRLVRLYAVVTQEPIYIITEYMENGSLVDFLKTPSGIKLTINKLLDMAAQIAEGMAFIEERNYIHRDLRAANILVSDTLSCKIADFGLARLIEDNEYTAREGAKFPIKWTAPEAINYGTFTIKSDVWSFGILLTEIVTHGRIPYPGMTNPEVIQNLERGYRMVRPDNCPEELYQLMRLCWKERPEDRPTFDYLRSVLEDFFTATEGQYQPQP

PRKG2 (human) = PRKG2 (human) (UniProt Q13237)
AKT2 (human) = AKT2 (human) (UniProt P31751)
MARK2 (human) = MARK2 (human) (UniProt Q7KZI7)
IRAK1 (human) = IRAK1 (human) (UniProt P51617)
Chain of IRAK1 (human) (P51617 whole entry, looked up): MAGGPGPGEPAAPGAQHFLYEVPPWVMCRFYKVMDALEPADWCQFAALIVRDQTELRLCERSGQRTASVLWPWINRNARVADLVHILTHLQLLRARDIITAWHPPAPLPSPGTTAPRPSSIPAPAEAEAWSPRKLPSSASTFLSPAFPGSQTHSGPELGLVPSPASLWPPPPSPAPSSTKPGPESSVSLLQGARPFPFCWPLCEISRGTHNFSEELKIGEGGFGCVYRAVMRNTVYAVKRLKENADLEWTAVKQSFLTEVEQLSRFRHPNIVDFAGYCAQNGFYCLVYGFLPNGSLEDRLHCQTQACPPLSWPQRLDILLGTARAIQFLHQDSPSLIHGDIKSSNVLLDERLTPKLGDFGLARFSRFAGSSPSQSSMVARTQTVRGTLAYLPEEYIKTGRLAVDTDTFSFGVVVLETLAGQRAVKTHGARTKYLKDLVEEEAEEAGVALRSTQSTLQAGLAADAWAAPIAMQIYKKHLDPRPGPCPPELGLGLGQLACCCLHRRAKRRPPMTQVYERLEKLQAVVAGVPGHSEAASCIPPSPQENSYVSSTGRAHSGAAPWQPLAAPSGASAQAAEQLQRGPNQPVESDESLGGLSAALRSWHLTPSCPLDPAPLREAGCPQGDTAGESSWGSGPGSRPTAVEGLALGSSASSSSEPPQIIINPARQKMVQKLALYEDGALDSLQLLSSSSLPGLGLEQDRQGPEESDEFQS

SRC (human) = SRC (human) (UniProt P12931)
RPS6KA3 KD1 KD2 (human) = RPS6KA3 KD1 KD2 (human) (UniProt P51812)
IKBKE (human) = IKBKE (human) (UniProt Q14164)
KIT (human) = KIT (human) (UniProt P10721)
PAK1 (human) = PAK1 (human) (UniProt Q13153)
Chain of PAK1 (human) (Q13153 whole entry, looked up): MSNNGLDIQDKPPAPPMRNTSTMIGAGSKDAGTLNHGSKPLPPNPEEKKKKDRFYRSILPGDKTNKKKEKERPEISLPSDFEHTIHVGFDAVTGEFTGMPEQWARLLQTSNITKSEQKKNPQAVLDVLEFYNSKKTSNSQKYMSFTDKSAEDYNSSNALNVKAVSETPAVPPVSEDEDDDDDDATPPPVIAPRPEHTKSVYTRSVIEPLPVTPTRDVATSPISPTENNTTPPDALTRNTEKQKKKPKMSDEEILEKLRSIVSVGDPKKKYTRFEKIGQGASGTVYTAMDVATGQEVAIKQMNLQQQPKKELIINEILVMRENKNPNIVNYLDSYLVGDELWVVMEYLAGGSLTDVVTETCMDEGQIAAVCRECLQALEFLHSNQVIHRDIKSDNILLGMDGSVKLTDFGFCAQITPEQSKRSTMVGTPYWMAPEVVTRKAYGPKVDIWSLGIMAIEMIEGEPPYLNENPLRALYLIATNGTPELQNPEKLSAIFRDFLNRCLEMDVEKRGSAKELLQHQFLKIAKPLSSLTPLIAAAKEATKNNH

MAPK14 (human) = MAPK14 (human) (UniProt Q16539)

Chain of EGFR (human) (P00533 whole entry, looked up): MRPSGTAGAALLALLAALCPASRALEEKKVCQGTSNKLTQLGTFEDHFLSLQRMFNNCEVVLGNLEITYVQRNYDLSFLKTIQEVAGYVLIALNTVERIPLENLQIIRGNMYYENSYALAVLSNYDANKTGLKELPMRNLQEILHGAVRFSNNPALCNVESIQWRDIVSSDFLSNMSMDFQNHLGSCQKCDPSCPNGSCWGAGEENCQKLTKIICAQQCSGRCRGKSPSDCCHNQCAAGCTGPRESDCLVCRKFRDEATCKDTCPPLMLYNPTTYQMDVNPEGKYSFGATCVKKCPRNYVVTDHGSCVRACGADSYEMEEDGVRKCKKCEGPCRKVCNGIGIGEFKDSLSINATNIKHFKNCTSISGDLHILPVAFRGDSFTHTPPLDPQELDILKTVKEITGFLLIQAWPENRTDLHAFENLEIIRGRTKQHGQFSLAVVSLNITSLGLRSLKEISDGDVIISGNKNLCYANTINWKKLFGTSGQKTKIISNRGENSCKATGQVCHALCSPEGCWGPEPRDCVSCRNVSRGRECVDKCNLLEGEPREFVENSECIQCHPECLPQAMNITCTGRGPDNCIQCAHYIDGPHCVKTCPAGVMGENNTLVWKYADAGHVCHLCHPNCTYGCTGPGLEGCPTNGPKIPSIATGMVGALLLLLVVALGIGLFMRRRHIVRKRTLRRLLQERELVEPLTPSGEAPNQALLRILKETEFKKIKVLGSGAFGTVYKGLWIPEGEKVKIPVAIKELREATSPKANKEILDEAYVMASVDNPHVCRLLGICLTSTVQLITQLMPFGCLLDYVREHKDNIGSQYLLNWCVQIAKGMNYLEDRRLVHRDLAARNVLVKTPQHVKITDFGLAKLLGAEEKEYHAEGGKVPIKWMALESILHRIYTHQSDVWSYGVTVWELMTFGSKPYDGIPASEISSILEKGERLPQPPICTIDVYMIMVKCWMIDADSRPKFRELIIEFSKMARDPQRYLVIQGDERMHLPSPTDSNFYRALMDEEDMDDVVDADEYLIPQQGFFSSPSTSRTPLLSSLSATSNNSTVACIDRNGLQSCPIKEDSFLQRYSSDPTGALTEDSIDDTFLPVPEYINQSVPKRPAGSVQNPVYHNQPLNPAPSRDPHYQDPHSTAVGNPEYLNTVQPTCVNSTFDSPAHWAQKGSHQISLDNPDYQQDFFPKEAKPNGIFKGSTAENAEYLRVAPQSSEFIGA
Chain of MAP3K8 (human) (P41279 whole entry, looked up): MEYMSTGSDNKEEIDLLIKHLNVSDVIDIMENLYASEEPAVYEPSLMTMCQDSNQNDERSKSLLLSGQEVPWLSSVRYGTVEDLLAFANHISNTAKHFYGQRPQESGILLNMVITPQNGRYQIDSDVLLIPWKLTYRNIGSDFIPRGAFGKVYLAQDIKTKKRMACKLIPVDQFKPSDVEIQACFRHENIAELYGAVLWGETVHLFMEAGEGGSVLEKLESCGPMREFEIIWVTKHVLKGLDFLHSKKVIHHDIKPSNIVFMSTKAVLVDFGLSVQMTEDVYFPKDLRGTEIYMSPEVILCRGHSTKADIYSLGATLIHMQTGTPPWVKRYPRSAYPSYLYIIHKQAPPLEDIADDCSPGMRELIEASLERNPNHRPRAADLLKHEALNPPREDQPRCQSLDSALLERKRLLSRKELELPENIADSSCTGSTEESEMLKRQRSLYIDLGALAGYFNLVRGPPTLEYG
Chain of PDPK1 (human) (O15530 whole entry, looked up): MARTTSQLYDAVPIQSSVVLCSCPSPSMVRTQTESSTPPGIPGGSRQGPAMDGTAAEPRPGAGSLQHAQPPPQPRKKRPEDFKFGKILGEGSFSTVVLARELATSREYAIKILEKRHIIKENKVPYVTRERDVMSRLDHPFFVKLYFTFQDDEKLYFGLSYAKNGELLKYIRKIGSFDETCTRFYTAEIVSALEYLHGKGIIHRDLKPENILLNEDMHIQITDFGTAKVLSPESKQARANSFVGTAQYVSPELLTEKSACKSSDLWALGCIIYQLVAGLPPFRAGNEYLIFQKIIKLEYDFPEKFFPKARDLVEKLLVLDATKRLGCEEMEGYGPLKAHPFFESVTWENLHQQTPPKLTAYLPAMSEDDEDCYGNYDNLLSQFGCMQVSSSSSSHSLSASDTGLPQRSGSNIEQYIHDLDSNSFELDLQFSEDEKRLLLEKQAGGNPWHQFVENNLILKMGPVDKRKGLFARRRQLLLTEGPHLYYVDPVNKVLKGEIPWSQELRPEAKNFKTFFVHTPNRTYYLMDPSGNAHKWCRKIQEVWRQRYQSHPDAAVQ
Chain of NEK6 (human) (Q9HC98 whole entry, looked up): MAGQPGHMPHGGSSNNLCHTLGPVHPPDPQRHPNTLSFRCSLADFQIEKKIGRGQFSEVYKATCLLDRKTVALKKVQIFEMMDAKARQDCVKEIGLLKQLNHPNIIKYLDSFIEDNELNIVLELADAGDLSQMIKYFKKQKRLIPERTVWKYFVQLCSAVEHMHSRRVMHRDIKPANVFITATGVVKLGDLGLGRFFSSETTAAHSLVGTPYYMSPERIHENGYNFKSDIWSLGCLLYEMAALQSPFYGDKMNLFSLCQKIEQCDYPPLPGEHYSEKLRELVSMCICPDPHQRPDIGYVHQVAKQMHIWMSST

Compound: Cn1cc(-c2cnc3ccc4ccc(CC(=O)NCc5ccccn5)cc4c(=O)c3c2)cn1
- inhibition (NEK6 (human); compound 0.1 µM): 5.2%
- inhibition (NEK6 (human); compound 1.0 µM): -7.4%
- inhibition (NEK6 (human); compound 10.0 µM): 9.6%
- inhibition (MST4 (human); compound 0.1 µM): 6.9%
- inhibition (MST4 (human); compound 1.0 µM): 2.2%
- inhibition (MST4 (human); compound 10.0 µM): -39.8%
- inhibition (RPS6KB1 (human); compound 0.1 µM): 5.5%
- inhibition (RPS6KB1 (human); compound 1.0 µM): 19.7%
- inhibition (RPS6KB1 (human); compound 10.0 µM): 25.1%
- inhibition (CDK2 CCNA2 (human); compound 0.1 µM): 17%
- inhibition (CDK2 CCNA2 (human); compound 1.0 µM): 18.6%
- inhibition (CDK2 CCNA2 (human); compound 10.0 µM): 18.3%
- inhibition (EGFR (human); compound 0.1 µM): 0.5%
- inhibition (EGFR (human); compound 1.0 µM): 0.6%
- inhibition (EGFR (human); compound 10.0 µM): 7.1%
- inhibition (MAP3K8 (human); compound 0.1 µM): 28%
- inhibition (MAP3K8 (human); compound 1.0 µM): 23.4%
- inhibition (MAP3K8 (human); compound 10.0 µM): 12.9%
- inhibition (ROCK2 (human); compound 0.1 µM): -1.9%
- inhibition (ROCK2 (human); compound 1.0 µM): -0.2%
- inhibition (ROCK2 (human); compound 10.0 µM): -5.8%
- inhibition (PDPK1 (human); compound 0.1 µM): 3.3%
- inhibition (PDPK1 (human); compound 1.0 µM): 9.3%
- inhibition (PDPK1 (human); compound 10.0 µM): 25.4%
- inhibition (JAK3 JH1 JH2 (human); compound 0.1 µM): 9.3%
- inhibition (JAK3 JH1 JH2 (human); compound 1.0 µM): 6.1%
- inhibition (JAK3 JH1 JH2 (human); compound 10.0 µM): 25.6%
- inhibition (NEK2 (human); compound 0.1 µM): 15.7%
- inhibition (NEK2 (human); compound 1.0 µM): 9.8%
- inhibition (NEK2 (human); compound 10.0 µM): -56.3%
- inhibition (ZAP70 (human); compound 0.1 µM): 18.4%
- inhibition (ZAP70 (human); compound 1.0 µM): 17.4%
- inhibition (ZAP70 (human); compound 10.0 µM): 15.2%
- inhibition (PKN1 (human); compound 0.1 µM): 12.2%
- inhibition (PKN1 (human); compound 1.0 µM): 13.6%
- inhibition (PKN1 (human); compound 10.0 µM): -14.2%
- inhibition (DAPK1 (human); compound 0.1 µM): 21.9%
- inhibition (DAPK1 (human); compound 1.0 µM): 2.1%
- inhibition (DAPK1 (human); compound 10.0 µM): 14.5%
- inhibition (CDK5 CDK5R1 p25 (human); compound 0.1 µM): 6.6%
- inhibition (CDK5 CDK5R1 p25 (human); compound 1.0 µM): 6.7%
- inhibition (CDK5 CDK5R1 p25 (human); compound 10.0 µM): 14.5%
- inhibition (FLT3 (human); compound 0.1 µM): 24.6%
- inhibition (FLT3 (human); compound 1.0 µM): 59.7%
- inhibition (FLT3 (human); compound 10.0 µM): 80%
- inhibition (EPHB2 (human); compound 0.1 µM): 8.6%
- inhibition (EPHB2 (human); compound 1.0 µM): 8%
- inhibition (EPHB2 (human); compound 10.0 µM): 3.5%
- inhibition (ADRBK1 (human); compound 0.1 µM): 9.4%
- inhibition (ADRBK1 (human); compound 1.0 µM): 8.9%
- inhibition (ADRBK1 (human); compound 10.0 µM): 10.4%
- inhibition (LCK (human); compound 0.1 µM): 27.2%
- inhibition (LCK (human); compound 1.0 µM): 37.9%
- inhibition (LCK (human); compound 10.0 µM): 77.3%
- inhibition (PRKG2 (human); compound 0.1 µM): 12.8%
- inhibition (PRKG2 (human); compound 1.0 µM): 14.8%
- inhibition (PRKG2 (human); compound 10.0 µM): 53.5%
- inhibition (AKT2 (human); compound 0.1 µM): 9.8%
- inhibition (AKT2 (human); compound 1.0 µM): 11.3%
- inhibition (AKT2 (human); compound 10.0 µM): 15.6%
- inhibition (MARK2 (human); compound 0.1 µM): 12.1%
- inhibition (MARK2 (human); compound 1.0 µM): 14.2%
- inhibition (MARK2 (human); compound 10.0 µM): 19.7%
- inhibition (IRAK1 (human); compound 0.1 µM): 7.1%
- inhibition (IRAK1 (human); compound 1.0 µM): 27.1%
- inhibition (IRAK1 (human); compound 10.0 µM): 66.3%
- inhibition (SRC (human); compound 0.1 µM): 3.7%
- inhibition (SRC (human); compound 1.0 µM): 7.4%
- inhibition (SRC (human); compound 10.0 µM): 15%
- inhibition (RPS6KA3 KD1 KD2 (human); compound 0.1 µM): 6.4%
- inhibition (RPS6KA3 KD1 KD2 (human); compound 1.0 µM): 7.8%
- inhibition (RPS6KA3 KD1 KD2 (human); compound 10.0 µM): 18.9%
- inhibition (IKBKE (human); compound 0.1 µM): 7.5%
- inhibition (IKBKE (human); compound 1.0 µM): 7%
- inhibition (IKBKE (human); compound 10.0 µM): 8.6%
- inhibition (KIT (human); compound 0.1 µM): 9.7%
- inhibition (KIT (human); compound 1.0 µM): 13.2%
- inhibition (KIT (human); compound 10.0 µM): 48.1%
- inhibition (PAK1 (human); compound 0.1 µM): 19.6%
- inhibition (PAK1 (human); compound 1.0 µM): 18.5%
- inhibition (PAK1 (human); compound 10.0 µM): -12.1%
- inhibition (MAPK14 (human); compound 0.1 µM): 17.9%
- inhibition (MAPK14 (human); compound 1.0 µM): 20.8%
- inhibition (MAPK14 (human); compound 10.0 µM): 20.1%

— the kinase profiling compilation of Christmann-Franck et al. (2016)
